pIC50: −log10 of the molar value. Entries after “also recorded” stand apart in the source; their conditions may differ.

For series [1], the target named is T1, Coronary A2-Adenosine Receptor (Canis lupus familiaris, UniProt P11617).
T1 construct: The assay of coronary vasoactivity in the anesthetized, open-chest dog; from tissue; host or cells: coronary vessels in situ, anesthetized open-chest dog
As to the kind of experiment: Coronary vasoactivity in the anesthetized, open-chest dog (intracoronary infusion; MPR from EC50). It is filed as in vivo. The text has this: (§1) In the present invention there is compared the A1 - and A2 -potencies of a series of long-chain derivatives of adenosine suitable for attachment to "carriers," such as peptides or proteins, and for immobilization to polymeric matrices for affinity chromatography of adenosine receptors. The method employed is a comparison of increasing coronary blood flow via activation of an A2 -adenosine receptor versus an A1 -binding assay in rat brain.
(§2) The potencies at A2 -receptors (Table 1) are expressed as a molar potency ratio of the EC50 value of adenosine divided by that of the adenosine analogue. A common reference compound on which to base molar potency ratios was needed to facilitate comparison of activities at A1 and A2 receptors. Adenosine itself cannot be used as a reference in the A1 binding assay since treatment of the membranes with adenosine deaminase is essential. […] Thus, MeAdo was used as a suitable reference compound.
The assay of coronary vasoactivity in the anesthetized, open-chest dog, is described by Kusachi et al, J. Med. Chem., in press, and Olsson, et al, J. Circ. […] The assay estimates an EC-50, the concentration of analogue which produces a half maximum change in coronary conductance (reciprocal resistance). To reduce between-animal variability activity is expressed as a molar potency ratio (MPR) the value of the EC-50 of adenosine divided by that of the analogue. Owing to the low water solubility of some of the analogues, solutions for intracoronary infusion were prepared by diluting stock solutions in dimethyl sulfoxide. In such instances, solutions of adenosine used to establish a standard of potency also contained dimethyl sulfoxide. […]

The next series relates to A2-receptors. Particulars: background; cited from earlier work.
The next series deals with A1-receptors. The conditions noted are these: background; cited from earlier work.
Another series in a line: Water solubility. It counts as physicochemical.
In series [2] the target is T2, A2-adenosine receptor (adenylate cyclase, human platelet membranes) (Homo sapiens, UniProt P29274).
T2 construct: stimulation of adenylate cyclase in human platelet membranes; from tissue; host or cells: human platelet membranes
Kind of series: Stimulation of adenylate cyclase in human platelet membranes. Particulars: human platelet membranes; read-out: IC50 (printed lC50), stimulation of adenylate cyclase. It counts as biochemical.

In series [3] the target is T3, Brain A1-adenosine receptor (Rattus norvegicus, UniProt P25099).
T3 construct: -cyclohexyladenosine to rat cerebral cortical membranes; from tissue; host or cells: rat cerebral cortical membranes
T3 sequence (P25099 1-326): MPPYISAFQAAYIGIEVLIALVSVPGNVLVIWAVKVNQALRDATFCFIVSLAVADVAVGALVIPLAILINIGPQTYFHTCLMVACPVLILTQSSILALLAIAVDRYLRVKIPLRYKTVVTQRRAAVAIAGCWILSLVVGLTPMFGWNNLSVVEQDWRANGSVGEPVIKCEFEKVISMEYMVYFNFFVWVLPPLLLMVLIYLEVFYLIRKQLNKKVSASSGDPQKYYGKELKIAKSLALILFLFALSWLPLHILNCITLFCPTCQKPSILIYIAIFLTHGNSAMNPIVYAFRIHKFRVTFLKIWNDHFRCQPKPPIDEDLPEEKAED
As to the kind of experiment: A1-binding assay: antagonism of binding of 1nM [3H]N6-cyclohexyladenosine to rat cerebral cortical membranes. The conditions noted are these: molar potency ratio derived from Ki values; rat cerebral cortical membranes.
Source text: as §1
^b Molar potency ratio relative to adenosine, derived from Ki
values for antagonism of binding of 1nM [^3 H]N^6
-cyclohexyladenosine to rat cerebral cortical membranes.
as §2

T1 sequence (P11617 whole entry): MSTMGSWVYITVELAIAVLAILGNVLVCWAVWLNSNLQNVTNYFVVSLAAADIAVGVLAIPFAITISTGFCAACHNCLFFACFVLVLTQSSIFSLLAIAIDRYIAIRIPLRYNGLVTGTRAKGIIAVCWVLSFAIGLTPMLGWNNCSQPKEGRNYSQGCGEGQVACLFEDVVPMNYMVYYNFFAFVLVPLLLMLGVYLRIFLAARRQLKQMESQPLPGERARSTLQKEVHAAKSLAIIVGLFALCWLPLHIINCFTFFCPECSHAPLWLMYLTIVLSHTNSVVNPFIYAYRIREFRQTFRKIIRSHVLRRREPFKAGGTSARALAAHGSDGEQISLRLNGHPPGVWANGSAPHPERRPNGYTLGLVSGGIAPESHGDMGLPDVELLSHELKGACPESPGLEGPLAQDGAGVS
T2 sequence (P29274 whole entry): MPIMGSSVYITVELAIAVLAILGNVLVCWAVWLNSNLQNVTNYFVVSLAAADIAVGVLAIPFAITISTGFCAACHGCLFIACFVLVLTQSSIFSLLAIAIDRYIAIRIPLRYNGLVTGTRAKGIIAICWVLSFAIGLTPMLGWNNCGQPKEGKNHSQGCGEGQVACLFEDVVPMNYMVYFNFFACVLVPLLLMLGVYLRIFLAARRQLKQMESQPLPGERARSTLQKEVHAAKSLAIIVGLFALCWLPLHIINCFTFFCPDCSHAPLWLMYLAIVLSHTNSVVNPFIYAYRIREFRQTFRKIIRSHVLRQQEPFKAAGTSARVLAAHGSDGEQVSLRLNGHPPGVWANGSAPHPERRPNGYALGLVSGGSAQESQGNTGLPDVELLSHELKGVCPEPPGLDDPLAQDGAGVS

Consider `CCNC(=O)[C@H]1O[C@@H](n2cnc3c(N)ncnc32)[C@H](O)[C@@H]1O` [Compound 1, N-Ethyladenosine-5'-uronamide], for which the “coronary vasoactivity (in words)” value in series [1] (intracoronary infusion, dog) is listed as “exceptionally potent”. In addition, the “potency at A2-receptors (rank in words)” value in the series on A2-receptors is recorded as “clearly the most potent”. The “order of potency at A1-receptors” value in the series with A1-receptors is “R-PIA, CHA>NECA>S-PIA”.

Broadly, the pIC50 is the IC50 on a negative log10 scale, so that one unit is a factor of ten. As to `O=C(CCCC[C@@H]1SC[C@@H]2NC(=O)N[C@@H]21)NCCCCCC(=O)NCCNC(=O)Cc1ccc(NC(=O)Cc2ccc(Nc3ncnc4c3ncn4[C@@H]3O[C@H](CO)[C@@H](O)[C@H]3O)cc2)cc1` [Compound 19], in series [1] (coronary vasodilation, intracoronary infusion), the “Onset of Action” value was in the range of 20 to 30 s. Also, in series [1] (dog coronary A2 versus rat brain A1), the “A2 versus A1 receptor selectivity (in words)” value is “highly divergent at A1 and A2 receptors”. Further, in series [1] (intracoronary infusion), the “Duration of Vasodilation” value was > 1 h and the “duration of vasodilation (in words)” value is “often lasted for an hour or more”. For the same compound, the “coronary vasoactivity (in words)” value in series [1] (intracoronary infusion, dog) is “most active analogue; also recorded: three most active analogues”. For the same compound, the “A2 Receptor MPR Relative to Ado” value in series [1] (molar potency ratio: EC50 of adenosine divided by that of the analogue, coronary, dog) turned out to be 10.2 ± 7.3. In addition, in series [1] (ratio of MPR (MeAdo) at dog coronary A2 receptor to MPR at rat brain A1 receptor), the “A2/A1 potency ratio (MPR(A2)/MPR(A1))” value stood at 61. The “water solubility (in words)” value in the series “Water solubility” is reported as “practically insoluble in water”. Moreover, the negative logarithm of the IC50 (pIC50) in series [2] is 5.62. The “A1 Receptor MPR Relative to MeAdo” value in series [3] came to 3.3.

Values taken from patent US5284834A, “Adenosine functionalized congeners as cardiovascular treating agents for animals and methods for using same” (priority 1992, dated 1994).
